# Laboratory results taken from paper PMC8070968, “The Alteration of L-Carnitine Transport and Pretreatment Effect under Glutamate Cytotoxicity on Motor Neuron-Like NSC-34 Lines” (Pharmaceutics, 2021).
# Columns and labels:
# OCTN2/slc22a5 = molecular target: T1, OCTN2/slc22a5 (Mus musculus, UniProt Q9Z0E8); assay: [3H]L-carnitine uptake in NSC-34 cells with mOCTN2 siRNA knockdown; type: cell-based
# T1 sequence (Q9Z0E8 1-557): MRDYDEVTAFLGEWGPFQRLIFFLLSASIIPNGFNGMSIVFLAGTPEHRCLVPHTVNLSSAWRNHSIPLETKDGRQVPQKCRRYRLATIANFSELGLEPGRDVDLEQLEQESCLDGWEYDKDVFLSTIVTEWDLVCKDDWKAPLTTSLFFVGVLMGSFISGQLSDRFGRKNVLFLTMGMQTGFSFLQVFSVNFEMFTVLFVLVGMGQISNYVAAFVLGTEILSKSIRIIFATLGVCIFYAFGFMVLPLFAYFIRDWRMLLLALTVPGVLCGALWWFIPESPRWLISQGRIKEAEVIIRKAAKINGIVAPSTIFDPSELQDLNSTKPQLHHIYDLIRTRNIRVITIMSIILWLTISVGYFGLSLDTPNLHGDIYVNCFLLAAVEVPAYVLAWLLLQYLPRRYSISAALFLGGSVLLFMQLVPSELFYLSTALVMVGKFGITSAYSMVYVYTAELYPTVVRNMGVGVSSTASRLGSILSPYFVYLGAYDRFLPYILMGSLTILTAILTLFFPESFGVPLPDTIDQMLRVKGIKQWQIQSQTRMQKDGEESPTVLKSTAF
# OCTN1/slc22a4 = molecular target: T2, OCTN1/slc22a4 (Mus musculus, UniProt Q9Z306); assay: [3H]L-carnitine uptake in NSC-34 cells with mOCTN1 siRNA knockdown; type: cell-based
# T2 sequence (Q9Z306 1-553): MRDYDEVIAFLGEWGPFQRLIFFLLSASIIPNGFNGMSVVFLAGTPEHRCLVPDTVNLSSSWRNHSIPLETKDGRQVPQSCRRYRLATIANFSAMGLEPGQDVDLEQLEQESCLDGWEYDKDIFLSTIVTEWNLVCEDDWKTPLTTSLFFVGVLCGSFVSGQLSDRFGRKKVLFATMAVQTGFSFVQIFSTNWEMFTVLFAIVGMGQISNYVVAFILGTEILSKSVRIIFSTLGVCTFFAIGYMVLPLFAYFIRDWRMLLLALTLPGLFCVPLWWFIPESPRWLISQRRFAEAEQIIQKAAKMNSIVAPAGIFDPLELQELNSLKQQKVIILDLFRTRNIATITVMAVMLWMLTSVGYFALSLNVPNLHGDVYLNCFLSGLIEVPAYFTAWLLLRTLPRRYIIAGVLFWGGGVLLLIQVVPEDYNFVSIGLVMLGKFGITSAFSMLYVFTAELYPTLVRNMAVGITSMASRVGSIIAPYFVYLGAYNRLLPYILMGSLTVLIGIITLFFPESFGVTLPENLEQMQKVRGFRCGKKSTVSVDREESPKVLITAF
smiles,measurement,setting,value
"C[N+](C)(C)C[C@H](O)CC(=O)[O-] [LC, L-carnitine]",[3H]L-carnitine uptake in NSC-34 cells with mOCTN2 siRNA knockdown,OCTN2/slc22a5,mOCTN1 and mOCTN2 siRNA-transfected NSC-34 cell lines demonstrated a significant decrease in the slc22a4 and slc22a5 gene expression level
same,[3H]L-carnitine uptake in NSC-34 cells with mOCTN1 siRNA knockdown,OCTN1/slc22a4,OCTN1/slc22a4 and OCTN2/slc22a5 siRNA transfection study revealed both transporters are involved in LC transport in NSC-34 cell lines
